Experimental data taken from patent US12227498B2, “Heterocyclic amine derivative and pharmaceutical composition comprising same” (Daewoong Pharmaceutical Co., Ltd., priority 2018, dated 2025).

Experiments:
ITK = molecular target: T1, ITK (Homo sapiens, UniProt Q08881); assay: Inhibitory activity against ITK, ADP-Glo + ITK Kinase enzyme system kit (Promega); format: biochemical; conditions: ITK enzyme 0.4 ng/μl; 15 min preincubation at room temperature; 1 hour at 30° C.; luminescence; duplicate
T1 construct: purchased Promega Corporation
T1 sequence (Q08881 1-620): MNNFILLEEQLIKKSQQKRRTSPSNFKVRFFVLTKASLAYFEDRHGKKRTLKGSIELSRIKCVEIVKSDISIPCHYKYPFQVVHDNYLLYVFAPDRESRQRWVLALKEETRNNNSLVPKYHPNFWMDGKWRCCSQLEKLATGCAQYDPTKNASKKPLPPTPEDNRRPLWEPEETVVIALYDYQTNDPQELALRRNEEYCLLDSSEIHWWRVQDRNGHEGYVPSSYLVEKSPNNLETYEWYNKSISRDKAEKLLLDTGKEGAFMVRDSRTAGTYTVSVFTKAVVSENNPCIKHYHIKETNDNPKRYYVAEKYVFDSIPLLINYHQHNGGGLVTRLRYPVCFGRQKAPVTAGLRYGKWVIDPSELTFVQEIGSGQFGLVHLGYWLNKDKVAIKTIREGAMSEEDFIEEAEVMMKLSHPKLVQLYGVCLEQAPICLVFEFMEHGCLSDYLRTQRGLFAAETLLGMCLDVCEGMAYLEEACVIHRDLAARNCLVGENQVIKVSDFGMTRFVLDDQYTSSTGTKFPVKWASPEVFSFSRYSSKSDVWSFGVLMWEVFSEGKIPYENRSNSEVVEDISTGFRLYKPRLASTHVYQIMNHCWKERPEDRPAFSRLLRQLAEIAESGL
Method: (§1) Inhibitory activities against BTK and ITK were measured for the compounds prepared in the above Examples as follows.
The inhibitory activity against ITK was evaluated using ‘ADP-Glo™+ITK Kinase enzyme system’ kit (Promega Corporation). […] To the plate on which reactions were completed, 5 μl of substrate and 5 μl of ATP prepared so as to have a final concentration of […] were added and then allowed to react at 30° C. for 1 hour. All wells of the plate were treated with 25 μl of ADP-Glo™ reagent and then allowed to react at 30° C. for 40 minutes. After that, all wells were treated with 50 μl of kinase detection buffer, and then allowed to react at 30° C. for 30 minutes under light shielding conditions. For the plate on which all reactions were completed, luminescence was measured and the results were calculated. Evaluation was carried out in duplicate, and negative control and positive control were calculated depending on whether or not the enzyme was added without treatment of the compound. The IC50 was calculated based on the calculated values.

BTK = molecular target: T2, BTK (Homo sapiens, UniProt Q06187); assay: Inhibitory activity against BTK, ADP-Glo + BTK Kinase enzyme system kit (Promega); format: biochemical; conditions: BTK enzyme 1 ng/μl; ATP 10 µM; 15 min preincubation at room temperature; 1 hour at 30° C.; luminescence; duplicate
T2 construct: purchased Promega Corporation
Method: as §1
The inhibitory activities against BTK were evaluated using ‘ADP-Glo™+BTK Kinase enzyme system’ kit (Promega Corporation). […] 5 μl of substrate and 5 μl of ATP prepared so as to have a final concentration of 10 µM were added to the plate on which reactions were completed, and then allowed to react at 30° C. for 1 hour. All wells of the plate were treated with 25 μl of ADP-Glo™ reagent and allowed to react at 30° C. for 40 minutes. After that, all wells were treated with 50 μl of kinase detection buffer, and then reacted at 30° C. for 30 minutes under light shielding conditions. For the plate on which all reactions were completed, luminescence was measured and the results were calculated. Evaluation was carried out in duplicate, and negative control and positive control were calculated depending on whether or not the enzyme was added without treatment of the compound. The IC50 was calculated based on the calculated values.

T2 sequence (Q06187 whole entry): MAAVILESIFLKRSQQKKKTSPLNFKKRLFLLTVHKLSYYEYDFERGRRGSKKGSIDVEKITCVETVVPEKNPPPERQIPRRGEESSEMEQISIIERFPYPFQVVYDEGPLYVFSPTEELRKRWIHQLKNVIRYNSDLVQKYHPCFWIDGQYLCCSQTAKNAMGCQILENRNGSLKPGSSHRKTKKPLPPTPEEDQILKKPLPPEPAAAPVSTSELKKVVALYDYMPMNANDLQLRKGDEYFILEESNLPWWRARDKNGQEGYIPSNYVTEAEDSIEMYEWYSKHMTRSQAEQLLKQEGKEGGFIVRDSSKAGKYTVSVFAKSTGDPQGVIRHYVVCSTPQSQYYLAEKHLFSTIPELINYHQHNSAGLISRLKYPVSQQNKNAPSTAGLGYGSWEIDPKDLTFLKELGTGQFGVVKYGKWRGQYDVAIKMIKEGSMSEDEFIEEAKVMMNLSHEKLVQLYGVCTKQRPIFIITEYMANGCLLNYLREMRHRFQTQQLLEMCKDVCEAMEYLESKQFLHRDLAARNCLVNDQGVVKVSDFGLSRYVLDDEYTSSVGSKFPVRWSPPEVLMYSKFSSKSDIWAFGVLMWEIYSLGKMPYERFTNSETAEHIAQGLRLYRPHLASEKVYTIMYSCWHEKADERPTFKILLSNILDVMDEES

IC50 (ITK)	IC50 (BTK)	SMILES
> 200 nM	> 200 nM	CC#CC(=O)N1CCC[C@@H](Nc2cc(CN3CCOCC3)cc(Nc3ncc(C)s3)n2)C1 [Example 13, (R)-1-(3-((6-((5-methylthiazol-2-yl)amino)-4-(morpholinomethyl)pyridin-2-yl)amino)piperidin-1-yl) but-2-yn-1-one]
49.1 nM	3.3 nM	CC#CC(=O)N1CCC(Nc2cc(CN3CCOCC3)cc(Nc3ncc(C)s3)n2)C1 (stereo not drawn) [Example 14, 1-(3-((6-((5-methylthiazol-2-yl)amino)-4-(morpholinomethyl)pyridin-2-yl)amino)pyrrolidin-1-yl) but-2-yn-1-one]
47.3 nM	2.3 nM	C=CC(=O)N1CCC[C@H](Oc2cc(CN3CCOCC3)cc(Nc3ncc(C)s3)n2)C1 [Example 15, (S)-1-(3-((6-((5-methylthiazol-2-yl)amino)-4-(morpholinomethyl)pyridin-2-yl)oxy)piperidin-1-yl) prop-2-en-1-one]
> 1000 nM	1.1 nM	C=CC(=O)N1CCC[C@@H](Oc2cc(CN3CCOCC3)cc(Nc3ncc(C)s3)n2)C1 [Example 16, (R)-1-(3-((6-((5-methylthiazol-2-yl)amino)-4-(morpholinomethyl)pyridin-2-yl)oxy)piperidin-1-yl) prop-2-en-1-one]
1.9 nM	1.5 nM	C=CC(=O)N1CCCC(Nc2nc(CN3CCOCC3)cc(Nc3ncc(C)s3)n2)C1 (stereo not drawn) [Example 17, 1-(3-((4-((5-methylthiazol-2-yl)amino)-6-(morpholinomethyl)pyrimidin-2-yl)amino)piperidin-1-yl) prop-2-en-1-one]
50.5 nM	5.2 nM	CC#CC(=O)N1CCC[C@H](Nc2cc(CN3CCOCC3)cc(Nc3ncc(C)s3)n2)C1 [Example 18, (S)-1-(3-((6-((5-methylthiazol-2-yl)amino)-4-(morpholinomethyl)pyridin-2-yl)amino)piperidin-1-yl) but-2-yn-1-one]
	875 nM	CC#CC(=O)N1CCC(Nc2cc(CN3CCOCC3)cc(Nc3ncc(C)s3)n2)CC1 [Example 19, 1-(4-((6-((5-methylthiazol-2-yl)amino)-4-(morpholinomethyl)pyridin-2-yl)amino)piperidin-1-yl) but-2-yn-1-one]
1.1 nM	1.1 nM	C=CC(=O)N1CCC[C@H](Nc2cc(CN3CCN(C(C)=O)CC3)cc(Nc3ncc(C)s3)n2)C1 [Example 20]
1.9 nM	1.3 nM	C=CC(=O)N1CCC[C@H](Nc2nc(CN3CCOCC3)cc(Nc3ncc(C)s3)n2)C1 [Example 21, (S)-1-(3-((4-((5-methylthiazol-2-yl)amino)-6-(morpholinomethyl)pyrimidin-2-yl)amino)piperidin-1-yl) prop-2-en-1-one]
1 nM	1.2 nM	C=CC(=O)N1CCC[C@H](Nc2cc(CN3CCN(CCOC)CC3)cc(Nc3ncc(C)s3)n2)C1 [Example 22]
	36.6 nM	CC#CC(=O)N1CCC[C@H](Nc2nc(CN3CCOCC3)cc(Nc3ncc(C)s3)n2)C1 [Example 23, (S)-1-(3-((4-((5-methylthiazol-2-yl)amino)-6-(morpholinomethyl)pyrimidin-2-yl)amino)piperidin-1-yl) but-2-yn-1-one]
2.3 nM	2.2 nM	C=CC(=O)N1CC[C@H](Nc2nc(CN3CCOCC3)cc(Nc3ncc(C)s3)n2)C1 [Example 24, (S)-1-(3-((4-((5-methylthiazol-2-yl)amino)-6-(morpholinomethyl)pyrimidin-2-yl)amino)pyrrolidin-1-yl) prop-2-en-1-one]
~1000 nM	~1000 nM	C=CC(=O)N1CCC[C@@H](Nc2nc(CN3CCOCC3)cc(Nc3ncc(C)s3)n2)C1 [Example 25, (R)-1-(3-((4-((5-methylthiazol-2-yl)amino)-6-(morpholinomethyl)pyrimidin-2-yl)amino)piperidin-1-yl) prop-2-en-1-one]

The next lines start with the compound.

SMILES	IC50 (ITK)	IC50 (BTK)
C=CC(=O)N1CCCC(Nc2cc(CN3CCOCC3)cc(Nc3ncc(C)s3)n2)C1 (stereo not drawn) [Example 1, 1-(3-((6-((5-methylthiazol-2-yl)amino)-4-(morpholinomethyl)pyridin-2-yl)amino)piperidin-1-yl) prop-2-en-1-one]	4.1 nM	4.7 nM
C=CC(=O)N1CCC(Nc2cc(CN3CCOCC3)cc(Nc3ncc(C)s3)n2)C1 (stereo not drawn) [Example 2, 1-(3-((6-((5-methylthiazol-2-yl)amino)-4-(morpholinomethyl)pyridin-2-yl)amino)pyrrolidin-1-yl) prop-2-en-1-one]	2.6 nM	3.1 nM
C=CC(=O)N1CCC(Nc2cc(CN3CCOCC3)cc(Nc3ncc(C)s3)n2)CC1 [Example 3, 1-(4-((6-((5-methylthiazol-2-yl)amino)-4-(morpholinomethyl)pyridin-2-yl)amino)piperidin-1-yl) prop-2-en-1-one]	9.1 nM	10.3 nM
C=CC(=O)N1CCC[C@@H](Nc2cc(CN3CCOCC3)cc(Nc3ncc(C)s3)n2)C1 [Example 4, (R)-1-(3-((6-((5-methylthiazol-2-yl)amino)-4-(morpholinomethyl)pyridin-2-yl)amino)piperidin-1-yl) prop-2-en-1-one]	1.6 nM	0.4 nM
C=CC(=O)N1CCC[C@H](Nc2cc(CN3CCOCC3)cc(Nc3ncc(C)s3)n2)C1 [Example 5, (S)-1-(3-((6-((5-methylthiazol-2-yl)amino)-4-(morpholinomethyl)pyridin-2-yl)amino)piperidin-1-yl) prop-2-en-1-one]	> 200 nM	152 nM
C=CC(=O)N1CC[C@@H](Nc2cc(CN3CCOCC3)cc(Nc3ncc(C)s3)n2)C1 [Example 6, (R)-1-(3-((6-((5-methylthiazol-2-yl)amino)-4-(morpholinomethyl)pyridin-2-yl)amino)pyrrolidin-1-yl) prop-2-en-1-one]	36 nM	27.7 nM
C=CC(=O)N1CC[C@H](Nc2cc(CN3CCOCC3)cc(Nc3ncc(C)s3)n2)C1 [Example 7, (S)-1-(3-((6-((5-methylthiazol-2-yl)amino)-4-(morpholinomethyl)pyridin-2-yl)amino)pyrrolidin-1-yl) prop-2-en-1-one]	3.5 nM	3.6 nM
C=CC(=O)N1CCC(Nc2cc(CN3CCOCC3)nc(Nc3ncc(C)s3)n2)C1 (stereo not drawn) [Example 8, 1-(3-((2-((5-methylthiazol-2-yl)amino)-6-(morpholinomethyl)pyrimidin-4-yl)amino)pyrrolidin-1-yl) prop-2-en-1-one]	71.7 nM	72.5 nM
C/C=C/C(=O)N1CCC(Nc2cc(CN3CCOCC3)nc(Nc3ncc(C)s3)n2)C1 (stereo not drawn) [Example 9, (E)-1-(3-((2-((5-methylthiazol-2-yl)amino)-6-(morpholinomethyl)pyrimidin-4-yl)amino)pyrrolidin-1-yl) but-2-en-1-one]	> 1000 nM	> 1000 nM
C=CC(=O)N1CCC(Oc2cc(CN3CCOCC3)cc(Nc3ncc(C)s3)n2)C1 (stereo not drawn) [Example 10, 1-(3-((6-((5-methylthiazol-2-yl)amino)-4-(morpholinomethyl)pyridin-2-yl)oxy)pyrrolidin-1-yl) prop-2-en-1-one]	> 40 nM	2.4 nM
C=CC(=O)N1CCC(Oc2cc(CN3CCOCC3)cc(Nc3ncc(C)s3)n2)CC1 [Example 11, 1-(4-((6-((5-methylthiazol-2-yl)amino)-4-(morpholinomethyl)pyridin-2-yl)oxy)piperidin-1-yl) prop-2-en-1-one]	7.8 nM	8.5 nM
C=CC(=O)N1CCCC(Oc2cc(CN3CCOCC3)cc(Nc3ncc(C)s3)n2)C1 (stereo not drawn) [Example 12, 1-(3-((6-((5-methylthiazol-2-yl)amino)-4-(morpholinomethyl)pyridin-2-yl)oxy)piperidin-1-yl) prop-2-en-1-one]	2 nM	2 nM
